Assay results: US20250205221A1, “MUSCLE RELAXANT” (priority 2022, published 2025)

Assays:
[1] = system: twitch response of the gastrocnemius muscle; experiment: Evaluation of neuromuscular blocking effect (time to complete recovery of twitch response); assay type: in vivo, Male Sprague Dawley rats; settings: for time until the muscle contraction (twitch response) was completely recovered: rats under isoflurane, dose inducing 95-99.9% neuromuscular block (ED95-99.9) via right jugular vein, sciatic nerve stimulation 0.1 Hz; for duration of action relative to succinylcholine: rats, doses inducing 95-99.9% neuromuscular block
Protocol: Male Sprague Dawley rats (about 300 g body weight) were used in the experiment. Anesthesia was first induced by 4 to 5% isoflurane inhalation and then maintained by 2 to 3% isoflurane inhalation. A warming system was used to keep the body temperature at 36 to 37° C. Lidocaine was infiltrated into the incision site. Tracheostomy was performed and a 16G catheter was inserted to secure the airway. The animals were ventilated by isoflurane and oxygen inhalation using a rodent ventilator at a tidal volume of 10 mL/kg and a respiratory rate of 70/min. A […] catheter was indwelled in the right jugular vein for drug administration. A small slide electrode was attached to the sciatic nerve, and supramaximal stimulation was applied at a frequency of 0.1 Hz and a pulse width of 0.2 ms using an electrostimulator. Using a force transducer, the twitch response of the gastrocnemius muscle was captured, amplified, and recorded. After the amplitude of the twitch response stabilized, a dose of succinylcholine or the JH-cpd series (JH013, JH014) inducing 95-99.9% neuromuscular block was administered, and the time until the muscle contraction (twitch response) was completely recovered was measured.

[2] = reported in Non-Patent Document 1; cited from earlier work

Structure (SMILES): COc1ccc(CC2c3cc(OC)c(OC)cc3CC[N+]2(C)CCCOC(=O)/C=C/C(=O)OCC[N+](C)(C)C)cc1OC (stereo not drawn) [JH013]
- time until the muscle contraction (twitch response) was completely recovered [1]: 5.5 min
- duration of action relative to succinylcholine [1]: approximately half

Structure (SMILES): COc1ccc(CC2c3cc(OC)c(OC)cc3CC[N+]2(C)CCOC(=O)/C=C/C(=O)OCC[N+](C)(C)C)cc1OC (stereo not drawn) [JH014]
- time until the muscle contraction (twitch response) was completely recovered [1]: 7.5 min
- duration of action relative to succinylcholine [1]: approximately two-thirds

Structure (SMILES): C[N+](C)(C)CCOC(=O)CCC(=O)OCC[N+](C)(C)C [succinylcholine, reference compound]
- time until the muscle contraction (twitch response) was completely recovered [1]: 11 min
- duration of action at clinical doses [2]: approximately 10 minutes
